Source: ChEMBL document CHEMBL1131269, “Enhancing effects of a mono-bromo substitution at the para position of the phenyl moiety on the metabolism and anti-HIV activity of d4T-phenyl methoxyalaninyl phosphate derivatives” (Bioorg Med Chem Lett, 1998)

Legend:
Conditions in all cases: Homo sapiens
[1] = Compound was tested for anti-HIV activity in normal peripheral blood mononuclear cells infected with HIV-2 virus by inhibition of reverse transcriptase activity; type: functional
[2] = Compound was tested for anti-HIV activity in normal peripheral blood mononuclear cells by microculture tetrazolium assay; type: functional
[3] = Compound was tested for anti-HIV activity in normal peripheral blood mononuclear cells by inhibition of reverse transcriptase activity; type: functional
[4] = Compound was tested for anti-HIV activity in normal peripheral blood mononuclear cells infected with HIV-1(RTMDR-1) virus by inhibition of reverse transcriptase activity; type: functional
[5] = test system: CCRF-CEM; experiment: Compound was tested for anti-HIV activity in TK-deficient CEM cells by p24 production assay; type: functional, cell-based
[6] = Compound was tested for anti-HIV activity in normal peripheral blood mononuclear cells by p24 production assay; type: functional
[7] = test system: CCRF-CEM; experiment: Compound was tested for anti-HIV activity in TK-deficient CEM cells by microculture tetrazolium assay; type: functional, cell-based
[8] = test system: CCRF-CEM; experiment: Compound was tested for anti-HIV activity in TK-deficient CEM cells by inhibition of reverse transcriptase activity; type: functional, cell-based

Row | SMILES | IC50 [1] | IC50 [2] | IC50 [3] | IC50 [4] | IC50 [5] | IC50 [6] | IC50 [7] | IC50 [8]
1 | COC(=O)C(C)NP(=O)(OC[C@@H]1C=C[C@H](n2cc(C)c(=O)[nH]c2=O)O1)Oc1ccc(Br)cc1 (some centres not stated) [STAMPIDINE] | 400 nM | > 10000 nM | 40 nM | 20 nM | 40 nM | 20 nM | > 10000 nM | 60 nM
2 | COC(=O)C(C)NP(=O)(OC[C@@H]1C=C[C@H](n2cc(C)c(=O)[nH]c2=O)O1)Oc1ccccc1 (some centres not stated) |  | > 10000 nM |  |  | 100 nM |  | > 10000 nM | 100 nM
3 | COC(=O)C(C)NP(=O)(OC[C@@H]1C=C[C@H](n2cc(C)c(=O)[nH]c2=O)O1)Oc1ccc(OC)cc1 (some centres not stated) |  | > 10000 nM | 30 nM |  | 100 nM | 30 nM | > 10000 nM | 300 nM
4 | Cc1cn([C@H]2C[C@H](N=[N+]=[N-])[C@@H](CO)O2)c(=O)[nH]c1=O (single isomer, unassigned) [ZIDOVUDINE] | 2400 nM |  |  | 2000 nM |  |  |  | 
5 | COC(=O)C(C)NP(=O)(OC[C@H]1O[C@@H](n2cc(C)c(=O)[nH]c2=O)C[C@@H]1N=[N+]=[N-])Oc1ccc(Br)cc1 (some centres not stated) | 3900 nM | > 10000 nM | 4 nM | 1500 nM |  |  | > 10000 nM | 40 nM
6 | Cc1cn([C@H]2C=C[C@@H](CO)O2)c(=O)[nH]c1=O [STAVUDINE] |  | > 10000 nM | 40 nM |  | 600 nM | 20 nM | > 10000 nM | 2400 nM
